# Experimental data taken from patent EP0684766B1, “HERBICIDAL COMPOSITIONS” (Hoechst Schering AgrEvo GmbH, priority 1993, dated 1994).
# Key:
# Matricaria chamomilla = assay: Post-emergent field test on winter cereals, % control of weeds; conditions: for % Control MATCH: post-emergent
# Procedure: (§1) The Examples are field tests carried out post-emergently in the Autumn on winter cereals. The compositions are evenly applied to the plants as suspensions using a water amount of 500 litres per hectare. […] The evaluation of the individual components (a) and (b) as well as their mixtures was carried out on a scale where 0 is no damage and 100 is complete destruction of the plants.
# Stellaria media = assay: as above; conditions: for % Control STEME: post-emergent
# Procedure: as §1
# Viola arvensis = assay: as above; conditions: for % Control VIOLA: post-emergent
# Procedure: as §1
# Galium aparine = assay: as above; conditions: for % Control GALAP: post-emergent
# Procedure: as §1
# plants = assay: Herbicidal activity of the phosphonate applied on its own; format: in vivo
# [1] = Matricaria chamomilla, post-emergence, 360 h, read-out: % Control MATCH
# [2] = Stellaria media, post-emergence, 360 h, read-out: % Control STEME
# [3] = Viola arvensis, post-emergence, 360 h, read-out: % Control VIOLA
# [4] = Galium aparine, post-emergence, 360 h, read-out: % Control GALAP
# [5] = Matricaria chamomilla, post-emergence, 720 h, read-out: % Control MATCH
# [6] = Stellaria media, post-emergence, 720 h, read-out: % Control STEME
# [7] = Viola arvensis, post-emergence, 720 h, read-out: % Control VIOLA
# [8] = Galium aparine, post-emergence, 720 h, read-out: % Control GALAP
# [9] = 15 g ai/ha, evaluation 30 days after application
# [10] = 10 g ai/ha, evaluation 15 days after application
# [11] = 24 g ai/ha, evaluation 15 days after application
# [12] = 48 g ai/ha, evaluation 15 days after application
# [13] = 48 g ai/ha, evaluation 30 days after application
# [14] = 95 g ai/ha, evaluation 15 days after application
structure (smiles),measurement,setting,value
"CCc1nc2c(Cl)cc(F)c(N3C(=O)C4=C(CCCC4)C3=O)c2s1 [(b3), N-(4-chloro-2-ethyl-6-fluorobenzothiazol-7-yl)-1-cyclohexene-1,2-dicarboximide]",pest or weed control at 15 g/ha,Matricaria chamomilla; [1],99%
same,pest or weed control at 15 g/ha,Stellaria media; [2],20%
same,pest or weed control at 15 g/ha,Viola arvensis; [3],83%
same,pest or weed control at 15 g/ha,Galium aparine; [4],33%
"COc1cc(OC)nc(NC(=O)NS(=O)(=O)N(C)S(C)(=O)=O)n1 [(b4), 3-[4,6-dimethoxypyrimidin-2-yl)-1-(N-methyl-N-methylsulfonyl-aminosulfonyl)urea]",pest or weed control at 12 g/ha,Matricaria chamomilla; [5],55%
same,pest or weed control at 12 g/ha,Stellaria media; [6],40%
same,pest or weed control at 12 g/ha,Viola arvensis; [7],20%
same,pest or weed control at 12 g/ha,Galium aparine; [8],42%
COC(=O)c1ccccc1S(=O)(=O)NC(=O)N(C)c1nc(C)nc(OC)n1,% Control MATCH,Matricaria chamomilla; [9],88%
same,% Control STEME,Stellaria media; [9],78%
same,% Control VIOLA,Viola arvensis; [9],40%
same,% Control GALAP,Galium aparine; [9],47%
COC(=O)c1cc(Oc2ccc(Cl)cc2Cl)ccc1[N+](=O)[O-] [bifenox],pest or weed control at 500 g/ha,Matricaria chamomilla; [1],63%
same,pest or weed control at 500 g/ha,Stellaria media; [2],15%
same,pest or weed control at 500 g/ha,Viola arvensis; [3],95%
same,pest or weed control at 500 g/ha,Galium aparine; [4],78%
"CC(C)c1ccc(NC(=O)N(C)C)cc1 [(b6), isoproturon]",pest or weed control at 750 g/ha,Matricaria chamomilla; [5],83%
same,pest or weed control at 750 g/ha,Stellaria media; [6],55%
same,pest or weed control at 750 g/ha,Viola arvensis; [7],30%
same,pest or weed control at 750 g/ha,Galium aparine; [8],13%
"CCOC(=O)Cn1c(=O)sc2cccc(Cl)c21 [(b8), benazolin-ethyl]",pest or weed control at 200 g/ha,Stellaria media; [6],88%
same,pest or weed control at 200 g/ha,Viola arvensis; [7],22%
same,pest or weed control at 200 g/ha,Galium aparine; [8],18%
COc1nc(C)nc(=NC(=O)NS(=O)(=O)c2ccccc2C(=O)O)[nH]1 [metsulfuron],pest or weed control at 3 g/ha,Matricaria chamomilla; [5],97%
same,pest or weed control at 3 g/ha,Stellaria media; [6],96%
same,pest or weed control at 3 g/ha,Viola arvensis; [7],50%
same,pest or weed control at 3 g/ha,Galium aparine; [8],10%
"C#CCN1C(=O)COc2cc(F)c(N=c3snc4n3CC(C)(C)C4)cc21 [(b1), 6-(6,7-dihydro-6,6-dimethyl-3H,5H-pyrrolo[2,1-c][1,2,4]thiadiazol-3-ylidenimino)-7-fluoro-4-(2-propynyl)-2H-1,4-benzoxazin-3(4H)-one]",% Control MATCH,Matricaria chamomilla; [10],50%
same,% Control STEME,Stellaria media; [10],70%
same,% Control GALAP,Galium aparine; [10],47%
"C#CCN1C(=O)COc2cc(F)c(N3C(=O)C4CCCCN4C3=O)cc21 (stereo not shown) [(b2), 2-[7-fluoro-3-oxo-4-(2-propynyl)-3,4-dihydro-2H-1,4-benzoxazin-6-yl]perhydroimidazo[1,5-a]pyridine-1,3-dione]",pest or weed control at 15 g/ha,Matricaria chamomilla; [1],90%
same,pest or weed control at 15 g/ha,Stellaria media; [2],27%
same,pest or weed control at 15 g/ha,Viola arvensis; [3],37%
same,pest or weed control at 15 g/ha,Galium aparine; [4],35%
"Cc1ccc(NC(=O)N(C)C)cc1Cl [(b7), chlorotoluron]",pest or weed control at 750 g/ha,Matricaria chamomilla; [5],88%
same,pest or weed control at 750 g/ha,Stellaria media; [6],85%
same,pest or weed control at 750 g/ha,Viola arvensis; [7],23%
same,pest or weed control at 750 g/ha,Galium aparine; [8],15%
"O=C(O)CNCP(=O)(O)O [(b9), glyphosate]",pest or weed control at 50 g/ha,Matricaria chamomilla; [5],28%
same,pest or weed control at 50 g/ha,Stellaria media; [6],25%
same,pest or weed control at 50 g/ha,Viola arvensis; [7],10%
same,pest or weed control at 50 g/ha,Galium aparine; [8],20%
"CCCCC(CC)COP(=O)(CC(CC)CCCC)OCC(CC)CCCC (stereo not shown) [(a), O,O-bis(2-ethylhexyl)(2-ethylhexyl)phosphonate]",% Control MATCH,Matricaria chamomilla; [11],0%
same,% Control MATCH,Matricaria chamomilla; [12],0%
same,% Control MATCH,Matricaria chamomilla; [13],0%
same,% Control MATCH,Matricaria chamomilla; [14],0%
same,% Control STEME,Stellaria media; [11],0%
same,% Control STEME,Stellaria media; [12],0%
same,% Control STEME,Stellaria media; [13],0%
same,% Control STEME,Stellaria media; [14],0%
same,herbicidal activity,plants,no herbicidal activity
same,% Control VIOLA,Viola arvensis; [12],0%
same,% Control VIOLA,Viola arvensis; [13],0%
same,% Control VIOLA,Viola arvensis; [14],0%
same,% Control GALAP,Galium aparine; [11],0%
same,% Control GALAP,Galium aparine; [12],0%
same,% Control GALAP,Galium aparine; [13],0%
same,% Control GALAP,Galium aparine; [14],0%
